Laboratory results taken from the supplement of paper PMC5412046.
Counter-ions that a name gives are not always drawn.

Experiments:
SB.mhdgc-1 = assay: AC50 for growth inhibition (viability) (log10 M); higher = less potent; settings: SB.mhdgc-1 (hereditary c.1380delA CDH1 gastric cancer)
How it was run: (§1)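 Hereditary or sporadic patient-derived gastric cancer cells (500 cells in 5 μL medium per 1536 well) received 23 nL compound in DMSO by pintool. Dosing was 11 threefold dilutions starting at a final 46 μM. After 48 h, CellTiter-Glo was added for 30 min at room temperature and luminescence read on a ViewLux. Log half-maximal activity concentration came from a four-parameter fit of DMSO-normalised viability, keeping only high-quality curve classes.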

SB.msgc-1 = assay: as above; settings: SB.msgc-1 (sporadic gastric cancer)
How it was run: as §1

SMILES	AC50 for growth inhibition (log10 M) (SB.mhdgc-1)	AC50 for growth inhibition (log10 M) (SB.msgc-1)
CNC(=O)c1cccc(-c2ccc3c(N4CCOC[C@@H]4C)nc(N4CCOC[C@@H]4C)nc3n2)c1 [AZD-2014]	-7.33	-7.03
NC1(C(=O)N[C@@H](CCO)c2ccc(Cl)cc2)CCN(c2ncnc3[nH]ccc23)CC1 [AZD-5363]	-5.23	-5.08
C[C@@H](NC1=CC=CC=C1C(O)=O)C/2=C/C(=C\N3C(=O)/C=C(\N=C23)N4CCOCC4)C [AZD-6482]	-4.82	-4.87
CN(C)C(=O)c1ccc([S+](=O)([O-])c2ccc(NC(=O)[C@@](C)(O)C(F)(F)F)c(Cl)c2)cc1 [AZD-7545]	-4.88	-4.73
COc1ccc(-c2ccc3c(N4CCOC[C@@H]4C)nc(N4CCOC[C@@H]4C)nc3n2)cc1CO [AZD-8055]	-7.83	-5.98
CN1C(=O)\C(=C/C(=C1/NC2=C(F)C=C(I)C=C2)C(=O)NOCCO)C [AZD-8330]	-4.78	-7.58
CN(C)Cc1c(C(=O)NCCOc2ccc(C(=O)NO)cc2)oc2ccccc12 [Abexinostat]	-5.13	-5.93
CC[C@@]1(O)C[C@H](O[C@H]2C[C@H](N(C)C)[C@H](O[C@H]3C[C@H](O)[C@H](O[C@H]4CCC(=O)[C@H](C)O4)[C@H](C)O3)[C@H](C)O2)c2c(cc3c(c2O)C(=O)c2c(O)cccc2C3=O)[C@H]1C(=O)OC [Aclarubicin]	-6.78	-6.28
COc1ccc(-c2ccc3cc(C(=O)O)ccc3c2)cc1C12CC3CC(CC(C3)C1)C2 [Adapalene]	-5.28	-5.23
CC(C)(C)C(=O)OCOP(=O)(COCCn1cnc2c(N)ncnc21)OCOC(=O)C(C)(C)C [Adefovir dipivoxil]	-6.93	-5.28
Nc1ncnc2c1ncn2[C@@H]1O[C@H](CO)[C@@H](O)[C@H]1O [Adenosine]	-6.08	-5.58
CN(C)CC(C)(C)CNc1nn2c(-c3ccccc3)nnc2cc1C1CCC1 [Akt-I-1]	-6.33	-4.68
CCCCC[C@H](O)/C=C/[C@H]1[C@H](O)CC(=O)[C@@H]1CCCCCCC(=O)O [Alprostadil]	-5.13	-4.68
CO[C@H]1/C=C\C=C(\C)C(=O)NC2=CC(=O)C(NCCN(C)C)=C(C[C@@H](C)C[C@H](OC)[C@H](O)[C@@H](C)/C=C(/C)[C@@H]1OC(N)=O)C2=O [Alvespimycin hydrochloride]	-7.38	-6.83
CCCCc1oc2ccccc2c1C(=O)c1cc(I)c(OCCN(CC)CC)c(I)c1 [Amiodarone]	-4.88	-5.03
CN(C)CCN1C(=O)c2cccc3cc(N)cc(c23)C1=O [Amonafide]	-5.68	-5.08
ClC1=CC\2=C(OC3=C(C=CC=C3)\N=C2N4CCNCC4)C=C1 [Amoxapine]	-4.63	-4.78
CC1(C)S[C@H]2[C@H](NC(=O)[C@@H](N)C3=CC=C(O)C=C3)C(=O)[N@]2[C@H]1C(O)=O [Amoxicillin sodium]	-5.53	-5.08
C[C@@H]1[C@H](O)[C@@H](C)/C=C/C=C/C=C/C=C/C=C/C=C/C=C/[C@H](O[C@@H]2O[C@H](C)[C@@H](O)[C@H](N)[C@@H]2O)C[C@@H]2O[C@](O)(C[C@@H](O)C[C@@H](O)[C@H](O)CC[C@@H](O)C[C@@H](O)CC(=O)O[C@H]1C)C[C@H](O)[C@H]2C(=O)O [Amphotericin B]	-6.38	-4.88
CC(C)CN(C[C@@H](O)[C@H](Cc1ccccc1)NC(=O)O[C@H]1CCOC1)[S+](=O)([O-])c1ccc(N)cc1 [Amprenavir]	-6.03	-5.63
S=C(NCc1ccc2c(c1)OCO2)N1CCN(c2ncnc3c2oc2ccccc23)CC1 [Amuvatinib]	-4.92	-5.57
N#C[C@H](O[C@@H]1O[C@H](CO[C@@H]2O[C@H](CO)[C@@H](O)[C@H](O)[C@H]2O)[C@@H](O)[C@H](O)[C@H]1O)c1ccccc1 [Amygdalin]	-4.73	-4.68
COc1cc(F)c(C(C)C)cc1-c1ccc(C(F)(F)F)cc1CN1C(=O)O[C@H](c2cc(C(F)(F)F)cc(C(F)(F)F)c2)[C@@H]1C [Anacetrapib]	-5.13	-5.48

SMILES	AC50 for growth inhibition (log10 M) (SB.mhdgc-1)	AC50 for growth inhibition (log10 M) (SB.msgc-1)
CCCCCC[C@H]1C(=O)O[C@H](C)[C@H](NC(=O)c2cccc(NC=O)c2O)C(=O)O[C@@H](C)[C@@H]1OC(=O)CC(C)C [Antimycin A]	-7.08	-7.13
OC1=CC=C(C=C1)\C2=C\C(=O)C3=C(O2)C=C(O)C=C3O [Apigenin]	-5.08	-4.83
Cc1cccc(/C=N/Nc2cc(N3CCOCC3)nc(OCCc3ccccn3)n2)c1 [Apilimod]	-4.88	-4.78
OC[C@H]1O[C@@H](Oc2ccc(O)cc2)[C@H](O)[C@@H](O)[C@@H]1O [Arbutin]	-4.93	-4.78
C[C@H]1[C@@H](OC(=O)CCC(=O)O)O[C@@H]2O[C@@]3(C)CC[C@H]4[C@H](C)CC[C@@H]1[C@@]24OO3 [Artesunate (AS)]	-5.03	-5.18
CCN1CCN(C(=O)Cc2ccc(Nc3ncc(F)c(Nc4ccc(C(=O)Nc5ccccc5Cl)cc4)n3)cc2)CC1 [Aurora A Inhibitor I]	-4.78	-4.73
COc1ccc(C(=O)CC(=O)c2ccc(C(C)(C)C)cc2)cc1 [Avobenzone]	-6.18	-5.58
CC[C@@H]1[C@@H](C)O[C@@](O)([C@@H](C)[C@H](O)[C@H](C)[C@H]2OC(=O)/C=C/C=C/[C@H](C)[C@@H]([C@@H](C)[C@@H](O)[C@H](C)[C@@]3(O)C[C@@H](O[C@H]4C[C@H](O)[C@H](O)[C@H](C)O4)[C@H](CC)[C@@H](C)O3)OC(=O)/C=C/C=C/[C@@H]2C)C[C@H]1O[C@H]1C[C@H](O)[C@H](O)[C@H](C)O1 [Azalomycin-B]	-6.38	-6.33
CN1CCCC(CC1)N2\N=C(CC3=CC=C(Cl)C=C3)/C4=C(C=CC=C4)C2=O (configuration not stated) [Azelastine hydrochloride]	-6.08	-6.03
CCOc1ccccc1N/N=C1/C(=O)N(c2nc(-c3ccccc3)cs2)N=C1C [BAM7]	-5.48	-5.48
COc1ccc(-c2cc3nccn3c(Nc3ncccc3C(N)=O)n2)cc1OC [BAY61-3606]	-5.53	-4.98
COC1=C(OCCCN2CCOCC2)C=CC\3=C1/N=C(/NC(=O)C4=CN=C(N)N=C4)N5CC/N=C35 [BAY-80-6946]	-6.84	-7.44
Cn1c(=O)n(-c2ccc(C(C)(C)C#N)cc2)c2c3cc(-c4cnc5ccccc5c4)ccc3ncc21 [BEZ235]	-6.88	-5.33
CCN1CCN(c2ccc(Nc3cc(N(C)C(=O)Nc4c(Cl)c(OC)cc(OC)c4Cl)ncn3)cc2)CC1 [BGJ-398]	-4.58	-4.73
O=[N+]([O-])c1cnc(Sc2nnc(O)n2-c2ccc3c(c2)OCCO3)s1 [BI-78D3]	-5.43	-4.83
O=C1Nc2cc(Br)ccc2/C1=C1/Nc2ccccc2/C1=N\O [BIO]	-4.78	-4.98
Nc1cc(C(F)(F)F)c(-c2cc(N3CCOCC3)nc(N3CCOCC3)n2)cn1 [BKM-120]	-6.78	-6.18
O=C(Nc1ncc(-c2cc(C(F)F)nn2-c2c(Cl)cccc2Cl)s1)C1CC1 [BMS-3]	-6.13	-6.18
CN(CC(=O)N(Cc1ccc(C2CCCCC2)cc1)c1ccc(C(=O)O)c(O)c1)[S+](=O)([O-])c1c(F)c(F)c(F)c(F)c1F [BP-1-102]	-4.58	-4.73
CC(C)c1cnn2c(NCc3ccccc3)cc(NCCCCCCN)nc12 [BS-181]	-4.83	-4.73
CC(C)c1cnn2c(NCc3ccccc3)cc(N[C@@H](CO)[C@H](O)CO)nc12 [BS-194]	-6.73	-6.58
C=CCO/N=C(/C[C@H]1O[C@@H]2O[C@]3(C)CC[C@H]4[C@H](C)CC[C@@H]([C@H]1C)[C@@]24OO3)[C@H]1O[C@@H]2O[C@]3(C)CC[C@H]4[C@H](C)CC[C@@H]([C@H]1C)[C@@]24OO3 [BTM-2C-dimer allyl oxime]	-6.88	-6.58
C[C@H]1[C@@H](C(=O)C[C@H]2O[C@@H]3O[C@]4(C)CC[C@H]5[C@H](C)CC[C@@H]([C@H]2C)[C@@]35OO4)O[C@@H]2O[C@]3(C)CC[C@H]4[C@H](C)CC[C@@H]1[C@@]24OO3 [BTM-2C-dimer ketone]	-6.38	-6.38
